Data: ChEMBL document CHEMBL1145498, “A systematic interaction map of validated kinase inhibitors with Ser/Thr kinases” (Proc Natl Acad Sci U S A, 2007)

Assays:
[1] = target: Calcium/calmodulin-dependent protein kinase type II subunit alpha (Homo sapiens) (UniProt Q9UQM7)
[2] = target: Dual specificity protein kinase CLK3 (Homo sapiens) (UniProt P49761)
[3] = target: Casein kinase I isoform gamma-3 (Homo sapiens) (UniProt Q9Y6M4)
[4] = target: Dual specificity mitogen-activated protein kinase kinase 2 (Homo sapiens, UniProt P36507)
[5] = target: T1, Mitogen-activated protein kinase kinase kinase 5 (Homo sapiens) (UniProt Q99683)
T1 sequence (whole entry): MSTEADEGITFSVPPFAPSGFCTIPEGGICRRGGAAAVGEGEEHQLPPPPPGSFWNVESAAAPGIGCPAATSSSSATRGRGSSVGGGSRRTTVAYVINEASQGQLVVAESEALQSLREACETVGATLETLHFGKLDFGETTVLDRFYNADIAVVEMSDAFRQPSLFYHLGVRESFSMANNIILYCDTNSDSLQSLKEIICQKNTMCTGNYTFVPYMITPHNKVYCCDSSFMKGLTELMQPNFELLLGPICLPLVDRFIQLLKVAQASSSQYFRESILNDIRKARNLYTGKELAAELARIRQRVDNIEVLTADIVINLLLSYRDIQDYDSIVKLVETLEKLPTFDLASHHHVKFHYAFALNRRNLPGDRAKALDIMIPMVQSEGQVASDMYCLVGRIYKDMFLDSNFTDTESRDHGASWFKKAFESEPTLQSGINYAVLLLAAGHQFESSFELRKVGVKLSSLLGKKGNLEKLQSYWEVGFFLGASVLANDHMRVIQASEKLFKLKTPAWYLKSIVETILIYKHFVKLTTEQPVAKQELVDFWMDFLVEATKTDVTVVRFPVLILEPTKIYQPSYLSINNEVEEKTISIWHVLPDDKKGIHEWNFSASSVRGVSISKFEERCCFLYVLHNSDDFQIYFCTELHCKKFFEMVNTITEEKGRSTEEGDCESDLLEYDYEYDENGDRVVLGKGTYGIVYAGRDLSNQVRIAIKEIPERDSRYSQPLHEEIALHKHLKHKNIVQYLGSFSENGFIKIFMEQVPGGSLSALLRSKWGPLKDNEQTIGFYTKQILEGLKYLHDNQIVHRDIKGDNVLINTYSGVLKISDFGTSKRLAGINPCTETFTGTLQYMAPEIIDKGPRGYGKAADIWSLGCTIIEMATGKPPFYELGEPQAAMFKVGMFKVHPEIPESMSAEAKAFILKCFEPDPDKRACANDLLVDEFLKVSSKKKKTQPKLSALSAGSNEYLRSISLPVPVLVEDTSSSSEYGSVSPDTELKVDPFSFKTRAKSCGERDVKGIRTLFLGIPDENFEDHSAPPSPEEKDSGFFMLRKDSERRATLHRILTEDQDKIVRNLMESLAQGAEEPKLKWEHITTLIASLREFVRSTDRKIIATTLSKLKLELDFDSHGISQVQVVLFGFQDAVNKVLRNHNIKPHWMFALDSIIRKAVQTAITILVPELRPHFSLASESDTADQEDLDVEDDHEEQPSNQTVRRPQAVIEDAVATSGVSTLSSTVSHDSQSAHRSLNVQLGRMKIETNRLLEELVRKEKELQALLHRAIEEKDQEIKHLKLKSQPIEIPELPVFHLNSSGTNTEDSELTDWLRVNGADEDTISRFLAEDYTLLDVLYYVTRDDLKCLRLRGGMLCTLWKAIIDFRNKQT

[6] = target: Serine/threonine-protein kinase Nek6 (Homo sapiens) (UniProt Q9HC98)
[7] = target: T2, Serine/threonine-protein kinase 4 (Homo sapiens) (UniProt Q13043)
T2 sequence (whole entry): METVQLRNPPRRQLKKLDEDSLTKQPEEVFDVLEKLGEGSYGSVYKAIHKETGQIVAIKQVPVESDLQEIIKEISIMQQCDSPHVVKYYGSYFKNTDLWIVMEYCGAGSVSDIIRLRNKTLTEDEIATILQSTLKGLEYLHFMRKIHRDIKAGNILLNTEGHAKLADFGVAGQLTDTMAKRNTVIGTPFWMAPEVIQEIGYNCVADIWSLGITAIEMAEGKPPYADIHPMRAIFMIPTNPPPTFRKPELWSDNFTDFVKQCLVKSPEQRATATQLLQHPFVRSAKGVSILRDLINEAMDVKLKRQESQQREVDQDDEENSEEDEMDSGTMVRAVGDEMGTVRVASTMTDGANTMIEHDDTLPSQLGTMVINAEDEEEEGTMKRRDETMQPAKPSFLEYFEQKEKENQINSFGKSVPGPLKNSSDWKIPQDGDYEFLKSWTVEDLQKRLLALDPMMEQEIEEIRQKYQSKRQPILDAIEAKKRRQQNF

[8] = target: T3, Lymphokine-activated killer T-cell-originated protein kinase (Homo sapiens) (UniProt Q96KB5)
T3 sequence (whole entry): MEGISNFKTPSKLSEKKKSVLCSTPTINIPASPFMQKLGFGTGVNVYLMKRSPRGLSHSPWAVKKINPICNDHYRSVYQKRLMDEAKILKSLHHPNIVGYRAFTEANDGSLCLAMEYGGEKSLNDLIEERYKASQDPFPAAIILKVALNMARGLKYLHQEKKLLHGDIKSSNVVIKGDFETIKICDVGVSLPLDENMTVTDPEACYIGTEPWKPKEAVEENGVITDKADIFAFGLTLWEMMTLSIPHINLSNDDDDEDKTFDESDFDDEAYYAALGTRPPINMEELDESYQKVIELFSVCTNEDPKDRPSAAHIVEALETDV

Dual specificity mitogen-activated protein kinase kinase 2, sequence (P36507 whole entry): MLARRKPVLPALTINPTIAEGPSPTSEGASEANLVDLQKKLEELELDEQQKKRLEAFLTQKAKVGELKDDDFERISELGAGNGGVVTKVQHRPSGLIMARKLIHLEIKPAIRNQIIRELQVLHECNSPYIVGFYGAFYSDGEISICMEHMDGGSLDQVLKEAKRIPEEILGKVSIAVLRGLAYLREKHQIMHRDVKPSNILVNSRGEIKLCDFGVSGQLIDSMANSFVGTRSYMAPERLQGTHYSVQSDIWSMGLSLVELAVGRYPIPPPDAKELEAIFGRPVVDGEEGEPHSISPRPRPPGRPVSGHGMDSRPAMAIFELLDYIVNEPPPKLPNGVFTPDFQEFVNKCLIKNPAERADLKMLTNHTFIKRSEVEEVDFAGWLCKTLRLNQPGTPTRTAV
Casein kinase I isoform gamma-3 (Homo sapiens), sequence (Q9Y6M4 whole entry, looked up, canonical isoform): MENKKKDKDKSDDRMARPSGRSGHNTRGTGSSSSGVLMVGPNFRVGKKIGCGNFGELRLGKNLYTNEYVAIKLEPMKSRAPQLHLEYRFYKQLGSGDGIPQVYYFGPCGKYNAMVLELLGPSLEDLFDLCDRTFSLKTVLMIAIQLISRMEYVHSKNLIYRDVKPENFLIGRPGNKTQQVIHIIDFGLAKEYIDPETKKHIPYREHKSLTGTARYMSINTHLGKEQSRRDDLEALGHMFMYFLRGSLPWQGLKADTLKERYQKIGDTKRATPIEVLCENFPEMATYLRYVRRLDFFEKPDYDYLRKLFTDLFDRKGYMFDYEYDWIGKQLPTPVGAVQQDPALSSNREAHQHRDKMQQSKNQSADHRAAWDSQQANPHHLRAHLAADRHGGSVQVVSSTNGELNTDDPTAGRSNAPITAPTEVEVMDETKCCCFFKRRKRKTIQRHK
Serine/threonine-protein kinase Nek6 (Homo sapiens), sequence (Q9HC98 whole entry): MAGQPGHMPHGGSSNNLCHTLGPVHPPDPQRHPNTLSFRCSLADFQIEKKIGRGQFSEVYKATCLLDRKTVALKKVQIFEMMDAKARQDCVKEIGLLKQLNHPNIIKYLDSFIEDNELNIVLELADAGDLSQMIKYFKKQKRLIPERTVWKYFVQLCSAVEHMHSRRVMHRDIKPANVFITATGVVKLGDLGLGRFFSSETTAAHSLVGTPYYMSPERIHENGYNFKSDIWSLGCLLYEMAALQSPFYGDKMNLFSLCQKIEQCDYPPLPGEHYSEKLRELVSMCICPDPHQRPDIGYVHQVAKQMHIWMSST
Dual specificity protein kinase CLK3 (Homo sapiens), sequence (P49761 whole entry, looked up, canonical isoform): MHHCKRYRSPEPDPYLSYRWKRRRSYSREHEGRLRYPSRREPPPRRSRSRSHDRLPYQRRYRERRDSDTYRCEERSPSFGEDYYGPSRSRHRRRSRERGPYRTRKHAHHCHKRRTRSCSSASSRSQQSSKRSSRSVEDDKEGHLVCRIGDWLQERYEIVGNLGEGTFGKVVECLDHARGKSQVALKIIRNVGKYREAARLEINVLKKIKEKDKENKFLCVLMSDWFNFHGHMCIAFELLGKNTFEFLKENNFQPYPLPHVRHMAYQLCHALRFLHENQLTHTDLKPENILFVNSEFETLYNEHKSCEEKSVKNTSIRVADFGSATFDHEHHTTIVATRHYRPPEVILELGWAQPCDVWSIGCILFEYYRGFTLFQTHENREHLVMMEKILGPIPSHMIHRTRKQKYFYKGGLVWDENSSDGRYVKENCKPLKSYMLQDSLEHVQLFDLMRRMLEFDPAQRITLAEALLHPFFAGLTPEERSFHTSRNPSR
Calcium/calmodulin-dependent protein kinase type II subunit alpha (Homo sapiens), sequence (Q9UQM7 whole entry): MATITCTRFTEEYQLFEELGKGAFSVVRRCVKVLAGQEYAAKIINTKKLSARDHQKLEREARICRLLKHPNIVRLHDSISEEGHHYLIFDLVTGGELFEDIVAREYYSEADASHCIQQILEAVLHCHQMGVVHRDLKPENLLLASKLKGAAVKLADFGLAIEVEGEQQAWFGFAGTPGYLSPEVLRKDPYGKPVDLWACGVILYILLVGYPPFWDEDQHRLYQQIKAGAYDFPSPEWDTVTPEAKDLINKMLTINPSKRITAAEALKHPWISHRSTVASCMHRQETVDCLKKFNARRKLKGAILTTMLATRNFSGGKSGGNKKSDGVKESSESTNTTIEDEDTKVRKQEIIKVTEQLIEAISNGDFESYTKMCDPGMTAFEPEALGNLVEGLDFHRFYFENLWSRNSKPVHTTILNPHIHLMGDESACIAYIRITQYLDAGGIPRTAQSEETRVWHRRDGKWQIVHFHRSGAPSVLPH

Structure (SMILES)	ΔTm [1]	ΔTm [2]	ΔTm [3]	ΔTm [4]	ΔTm [5]	ΔTm [6]	ΔTm [7]	ΔTm [8]
CCOc1cc(/C=C(\C#N)C(N)=O)cc(CSc2ccccc2)c1O	-0.2 °C	0.3 °C	0.4 °C	0.4 °C	0.1 °C	-0.1 °C	0.4 °C	0.5 °C
Oc1ccc(-c2nc(-c3ccc(F)cc3)c(-c3ccncc3)[nH]2)cc1	0.4 °C	-0.1 °C	1.1 °C	0.9 °C	0.3 °C	0.4 °C	0.9 °C	0.3 °C
Nc1n[nH]c2nnc(-c3c(-c4ccccc4)nn4ccccc34)cc12	-0.4 °C	0.3 °C	1.1 °C	0.7 °C	0.6 °C	0.3 °C	0.4 °C	0.2 °C
O=Nc1c(-c2c(O)[nH]c3ccccc23)[nH]c2ccccc12	3.9 °C	2.7 °C	2.7 °C	4.4 °C	5.7 °C	0.1 °C	7.8 °C	0.5 °C
CN(C)CC1CCn2c(c(C3=C(c4c[nH]c5ccccc45)C(=O)NC3=O)c3ccccc32)C1 (stereo unspecified)	1.6 °C	0.3 °C	0.8 °C	-0.1 °C	0 °C	-0.9 °C	4.9 °C	-0.8 °C
O=c1ccc2ccc(O)c(O)c2o1 [DAPHNETIN]	0.4 °C	0.1 °C	0.4 °C	-0.3 °C	-0.6 °C	-0.3 °C	0 °C	-0.4 °C
Nc1ncnc2c1c(I)cn2[C@@H]1O[C@H](CO)[C@@H](O)[C@H]1O	0.7 °C	7.3 °C	2.7 °C	1.9 °C	0.9 °C	-0.2 °C	4.7 °C	0 °C
O=S(=O)(NCCNC/C=C/c1ccc(Br)cc1)c1cccc2cnccc12	0.5 °C	1 °C	0.1 °C	0 °C	-0.3 °C	-0.1 °C	-0.2 °C	0.6 °C
O=c1c(-c2ccc(O)cc2)coc2cc(O)cc(O)c12	0.8 °C	1 °C	1.6 °C	0.3 °C	0.6 °C	1 °C	1.5 °C	0.7 °C
O=C1Nc2ccc(I)cc2/C1=C1/Nc2ccccc2/C1=N\O	4.5 °C	3.5 °C	1.8 °C	6.4 °C	5.7 °C	-2 °C	9.5 °C	-2.4 °C
COc1ccc(COc2ccc(Cc3cnc(N)nc3N)cc2OC)cc1	-0.1 °C	0.1 °C	0.5 °C	0 °C	-0.2 °C	-0.2 °C	0.2 °C	-0.1 °C
Cc1nc(Nc2ncc(C(=O)Nc3c(C)cccc3Cl)s2)cc(N2CCN(CCO)CC2)n1	0 °C	4.1 °C	1.2 °C	-0.2 °C	0.2 °C	0.2 °C	–	–
O=C(O)c1cc(NCc2cc(O)ccc2O)ccc1O	0.4 °C	0.2 °C	0.3 °C	0.2 °C	-0.1 °C	0 °C	-0.6 °C	0 °C
CN[C@@H]1CC2O[C@@](C)([C@@H]1OC)n1c3ccccc3c3c4c(c5c6ccccc6n2c5c31)C(=O)NC4	16.3 °C	4.2 °C	1.9 °C	–	16.3 °C	-0.3 °C	17.9 °C	0.4 °C
Cc1cncc2cccc(S(=O)(=O)N3CCCNC[C@@H]3C)c12	1.2 °C	2.6 °C	0.2 °C	-0.3 °C	1.8 °C	0 °C	3.3 °C	1 °C
Nc1nccc(-c2c(-c3ccc(F)cc3)ncn2C2CCNCC2)n1	0.4 °C	0.1 °C	2.4 °C	0.1 °C	0.3 °C	-0.2 °C	2.6 °C	0.5 °C
Oc1cccc(-c2nc(N3CCOCC3)c3oc4ncccc4c3n2)c1	-0.3 °C	0 °C	0.1 °C	0.3 °C	-0.4 °C	0.4 °C	-0.1 °C	0.5 °C
O=[N+]([O-])c1ccc(-c2nc(-c3ccc(F)cc3)c(-c3ccncc3)[nH]2)cc1	2.2 °C	0.1 °C	2.6 °C	0.3 °C	-0.3 °C	0.9 °C	1.4 °C	0.3 °C
OC[C@H]1O[C@@H](n2cnc3cc(Cl)c(Cl)cc32)[C@H](O)[C@@H]1O	0.8 °C	1.4 °C	1 °C	-0.3 °C	-0.4 °C	–	0.2 °C	0.6 °C
CN1CCC(Nc2ncc3ncnc(Nc4ccc(F)c(Cl)c4)c3n2)CC1 [FALNIDAMOL]	-0.2 °C	2.7 °C	0 °C	0.9 °C	1.3 °C	1.5 °C	–	–
Clc1ccc(Nc2nnc(Cc3ccncc3)c3ccccc23)cc1	0.4 °C	1.1 °C	-0.2 °C	0.5 °C	-0.1 °C	0.1 °C	–	–
CCN(CC)CCNC(=O)c1c(C)[nH]c(/C=C2\C(=O)Nc3ccc(F)cc32)c1C	5 °C	2.1 °C	–	2.2 °C	-0.6 °C	3.4 °C	0.5 °C	0.4 °C
Cc1ccc(NC(=O)c2ccc(CN3CCN(C)CC3)cc2)cc1Nc1nccc(-c2cccnc2)n1	0.2 °C	–	0.3 °C	0.3 °C	0 °C	0.4 °C	0.2 °C	0.8 °C
COC(=O)[C@]1(O)C[C@@H]2O[C@@]1(C)n1c3ccccc3c3c4c(c5c6ccccc6n2c5c31)C(=O)NC4 (single isomer, unassigned)	3.2 °C	0.6 °C	0.2 °C	–	12.7 °C	0 °C	9.5 °C	0.4 °C
